Molecular target: T1, GLP-1 Receptor (Homo sapiens, UniProt P43220)
T1 construct: host or cells: HEK293/CRE-Luc (HEK293/GLPIR/CRE-LUC)
Test: GLP-1R agonist cAMP stimulation assay
Assay type: cell-based
Settings: HEK293/CRE-Luc cell line stably expressing the GLP-1 Receptor; 30 min incubation; cAMP dynamic 2 Kit (Cisbio)
Method: Activation of GLP-1 receptor is known to stimulate cyclic AMP (cAMP) production in cells which indicates primary coupling to the Gas subunit of the G protein heterotrimeric complex.
To optimize functional activity directed toward Gas coupling, a HEK293/CRE-Luc cell line developed by HDB stably expressing the GLP-1 Receptor was used. 200× concentration of compound working solutions were prepared (Agilent Technologies Bravo) with ½ log serial dilution in 384-well Echo LDV plate (Labcyte, Cat #LP-0200). 50 nL/well 200× concentration of compound working solutions were moved to 384-well white low volume plate (Greiner, Cat #784075) using Labcyte ECHO550. 1×10^5 cells/mL HEK293/GLPIR/CRE-LUC (HD Biosciences) cell suspensions prepared with assay buffer [DPBS containing 0.5 mM IBMX (Sigma, Cat #15879) and 0.10% BSA (GENVIEW, Cat #FA016-100g)], 10 μL cell suspensions were added to each well of previous generated assay plate which already contains 50 nL compound at 200× concentration using ThermoFisher Multidrop Combi (1000 cells/well). Seal the plate and incubate at 37° C. with 5% CO2 for 30 min.
After incubation the cAMP assay signal was generated using cAMP dynamic 2 Kit (Cisbio). 5 μL cAMP-d2 working solution was added to each well, followed with 5 μL Anti-cAMP antibody-cryptate working solution added to each well using ThermoFisher Multidrop Combi. Incubate at room temperature for 1 hour protected from light. Read the fluorescence at 665 and 615 nm with Reader PerkinElmer EnVision.

T1 sequence (P43220 24-463, species assumed): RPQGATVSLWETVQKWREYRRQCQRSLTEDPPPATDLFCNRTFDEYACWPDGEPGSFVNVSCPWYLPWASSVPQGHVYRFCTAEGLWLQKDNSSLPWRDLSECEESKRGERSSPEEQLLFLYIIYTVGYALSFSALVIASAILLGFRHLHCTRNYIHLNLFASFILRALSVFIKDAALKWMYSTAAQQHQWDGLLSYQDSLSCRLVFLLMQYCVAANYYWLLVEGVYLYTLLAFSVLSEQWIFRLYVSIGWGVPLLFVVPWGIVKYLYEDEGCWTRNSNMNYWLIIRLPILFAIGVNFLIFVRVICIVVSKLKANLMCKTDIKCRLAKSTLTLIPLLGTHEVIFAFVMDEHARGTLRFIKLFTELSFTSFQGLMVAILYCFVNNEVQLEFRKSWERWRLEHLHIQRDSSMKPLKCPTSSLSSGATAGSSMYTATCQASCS

Row | SMILES | EC50 [nM]
1 | C[C@]1(c2ccc(Cl)cn2)Oc2cccc(C3CCN(Cc4ncc(C(=O)NC5(C#N)CC5)cc4CC4(C#N)CC4)CC3)c2O1 [D-6] | > 100
2 | N#CC1(Cc2cc(C(=O)NC3(C#N)CC3)cnc2CN2CCC(c3ccc(F)c(OCc4ccc(Cl)cc4F)n3)CC2)CC1 [D-7] | > 100
3 | Cc1cc(-c2nnc(C3CCCOC3)[nH]2)cnc1CN1CCC(c2cccc3c2O[C@@](C)(c2ccc(Cl)cc2F)O3)CC1 (stereo partly shown) [E-10] | > 100
4 | COCCc1cc(-c2nnc(C(=O)O)[nH]2)cnc1CN1CCC(c2cccc3c2O[C@@](C)(c2ccc(Cl)cc2F)O3)CC1 [E-11] | > 100
5 | Cc1cc(-c2noc(-c3cccnc3)n2)cnc1CN1CCC(c2cccc(OCc3ccc(Cl)cc3F)n2)CC1 [E-12] | > 100
6 | Cc1cc(-c2ccncc2)cnc1CN1CCC(c2cccc3c2OC(C)(c2ccc(Cl)cc2F)O3)CC1 (stereo not shown) [E-14] | > 100
7 | Cc1cc(-c2nc(-c3cccnc3)no2)cnc1CN1CCC(c2cccc(OCc3ccc(Cl)cc3F)n2)CC1 [E-15] | > 100
8 | Cc1cc(-c2nnc(-c3cccnc3)s2)cnc1CN1CCC(c2cccc(OCc3ccc(Cl)cc3F)n2)CC1 [E-16] | > 100
9 | Cc1cc(-c2nc(C(=O)O)cs2)cnc1CN1CCC(c2cccc3c2OC(C)(c2ccc(Cl)cc2F)O3)CC1 (stereo not shown) [E-17] | > 100
10 | COCCNc1cc(-c2nnc(C(F)(F)F)[nH]2)cnc1CN1CCC(c2cccc3c2O[C@@](C)(c2ccc(Cl)cc2F)O3)CC1 [F-4, 2-({4-[(2S)-2-(4-chloro-2-fluorophenyl)-2-methyl-2H-1,3-benzodioxol-4-yl]piperidin-1-yl}methyl)-N-(2-methoxyethyl)-5-[5-(trifluoromethyl)-4H-1,2,4-triazol-3-yl]pyridin-3-amine] | 1 to 100
11 | C[C@]1(c2ccc(Cl)cc2F)Oc2cccc(C3CCN(Cc4ncc(-c5nnc(C(F)(F)F)[nH]5)cc4N4CC5CC4CO5)CC3)c2O1 (stereo partly drawn) [F-5, 5-[2-({4-[(2S)-2-(4-chloro-2-fluorophenyl)-2-methyl-2H-1,3-benzodioxol-4-yl]piperidin-1-yl}methyl)-5-[5-(trifluoromethyl)-4H-1,2,4-triazol-3-yl]pyridin-3-yl]-2-oxa-5-azabicyclo[2.2.1]heptane] | 1 to 100
12 | C[C@]1(c2ccc(Cl)cc2F)Oc2cccc(C3CCN(Cc4ncc(-c5nnc(C(F)(F)F)[nH]5)cc4C4CCOCC4)CC3)c2O1 [F-6, (S)-2-((4-(2-(4-chloro-2-fluorophenyl)-2-methylbenzo[d][1,3]dioxol-4-yl)piperidin-1-yl)methyl)-3-(tetrahydro-2H-pyran-4-yl)-5-(5-(trifluoromethyl)-4H-1,2,4-triazol-3-yl)pyridine] | 1 to 100
13 | C[C@]1(c2ccc(Cl)cc2F)Oc2cccc(C3CCN(Cc4ncc(-c5nnc(C(F)(F)F)[nH]5)cc4N4CCC(O)C4)CC3)c2O1 (stereo partly drawn) [F-7, 1-[2-({4-[(2S)-2-(4-chloro-2-fluorophenyl)-2-methyl-2H-1,3-benzodioxol-4-yl]piperidin-1-yl}methyl)-5-[5-(trifluoromethyl)-4H-1,2,4-triazol-3-yl]pyridin-3-yl]pyrrolidin-3-ol] | 1 to 100
14 | C[C@]1(c2ccc(Cl)cc2F)Oc2cccc(C3CCN(Cc4nnc(-c5nnc(C(F)(F)F)[nH]5)cc4N4CCOC5(CC5)C4)CC3)c2O1 [F-8, (S)-7-(3-((4-(2-(4-chloro-2-fluorophenyl)-2-methylbenzo[d][1,3]dioxol-4-yl)piperidin-1-yl)methyl)-6-(5-(trifluoromethyl)-4H-1,2,4-triazol-3-yl)pyridazin-4-yl)-4-oxa-7-azaspiro[2.5]octane] | 1 to 100
15 | C[C@]1(c2ccc(Cl)cc2F)Oc2cccc(C3CCN(Cc4ncc(-c5nnc(C(F)(F)F)[nH]5)cc4N4CCNC(=O)C4)CC3)c2O1 [F-9] | 1 to 100
16 | C[C@]1(c2ccc(Cl)cc2F)Oc2cccc(C3CCN(Cc4ncc(-c5nnc(C(F)(F)F)[nH]5)cc4C4CCCOC4)CC3)c2O1 (stereo partly shown) [F-10] | 1 to 100

Further lines, results first:

Row | EC50 [nM] | SMILES
17 | < 1 | C[C@]1(c2ccc(C(N)=O)cc2F)Oc2cccc(C3CCN(Cc4ncc(-c5nnc(C(F)(F)F)[nH]5)cc4CC4(C#N)CC4)CC3)c2O1 [A-1]
18 | 1 to 100 | CC1(c2ccc(C(=O)O)cc2F)Oc2cccc(C3CCN(Cc4ncc(-c5nnc(C(F)(F)F)[nH]5)cc4CC4(C#N)CC4)CC3)c2O1 (stereo not shown) [A-3]
19 | < 1 | C[C@]1(c2ccc(Cl)cc2F)Oc2cccc(C3CCC(Cc4ncc(-c5nnc(C(N)=O)[nH]5)cc4CC4(C#N)CC4)CC3)c2O1 (stereo partly shown) [B-1]
20 | < 1 | N#CC1(Cc2cc(-c3nc(C(F)(F)F)n[nH]3)cnc2CN2CCC(c3ccc4cnn(Cc5ccc(Cl)cc5F)c4n3)CC2)CC1 [C-1]
21 | 1 to 100 | COCCNC(=O)c1cnc(CN2CCC(c3cccc4c3O[C@@](C)(c3ccc(Cl)cc3F)O4)CC2)c(CC2(C#N)CC2)c1 [D-3]
22 | 1 to 100 | CNC(=O)c1cnc(CN2CCC(c3cccc4c3O[C@@](C)(c3ccc(Cl)cc3F)O4)CC2)c(CC2(C#N)CC2)c1 [D-4]
23 | < 1 | COCCNC(=O)c1nnc(-c2cnc(CN3CCC(c4cccc5c4O[C@@](C)(c4ccc(Cl)cc4F)O5)CC3)c(CC3(C#N)CC3)c2)[nH]1 [E-3]
24 | < 1 | CNC(=O)c1nnc(-c2cnc(CN3CCC(c4cccc5c4O[C@@](C)(c4ccc(Cl)cc4F)O5)CC3)c(CC3(C#N)CC3)c2)[nH]1 [E-4]
25 | < 1 | C[C@]1(c2ccc(Cl)cc2F)Oc2cccc(C3CCN(Cc4ncc(-c5nnc(C(=O)NC6CC6)[nH]5)cc4CC4(C#N)CC4)CC3)c2O1 [E-5]
26 | 1 to 100 | Cc1cc(-c2nnc(-c3cccnc3)[nH]2)cnc1CN1CCC(c2cccc3c2O[C@@](C)(c2ccc(Cl)cc2F)O3)CC1 [E-6]
27 | 1 to 100 | Cc1cc(-c2csc(C(=O)O)n2)cnc1CN1CCC(c2cccc3c2OC(C)(c2ccc(Cl)cc2F)O3)CC1 (stereo not shown) [E-7]
28 | 1 to 100 | Cc1cc(-c2cc(C(=O)O)n[nH]2)cnc1CN1CCC(c2cccc3c2OC(C)(c2ccc(Cl)cc2F)O3)CC1 (stereo not shown) [E-8]
29 | 1 to 100 | Cc1cc(-c2cnc(C(=O)O)s2)cnc1CN1CCC(c2cccc3c2OC(C)(c2ccc(Cl)cc2F)O3)CC1 (stereo not shown) [E-9]
30 | 1 to 100 | COCCc1cc(-c2nnc(C(=O)OC)[nH]2)cnc1CN1CCC(c2cccc3c2O[C@@](C)(c2ccc(Cl)cc2F)O3)CC1 [E-18]
31 | < 1 | C[C@]1(c2ccc(Cl)cc2F)Oc2cccc(C3CCN(Cc4ncc(-c5nnc(C(=O)O)[nH]5)cc4CC4(C#N)CC4)CC3)c2O1 [E-19]
32 | < 1 | C[C@]1(c2ccc(Cl)cc2F)Oc2cccc(C3CCN(Cc4ncc(-c5nnc(C(F)(F)F)[nH]5)cc4N4CCOCC4)CC3)c2O1 [F-1, 4-[2-({4-[(2S)-2-(4-chloro-2-fluorophenyl)-2-methyl-2H-1,3-benzodioxol-4-yl]piperidin-1-yl}methyl)-5-[5-(trifluoromethyl)-4H-1,2,4-triazol-3-yl]pyridin-3-yl]morpholine]
33 | 1 to 100 | C[C@]1(c2ccc(Cl)cc2F)Oc2cccc(C3CCN(Cc4ncc(-c5nnc(C(F)(F)F)[nH]5)cc4N4CCOC4=O)CC3)c2O1 [F-2, 3-[2-({4-[(2S)-2-(4-chloro-2-fluorophenyl)-2-methyl-2H-1,3-benzodioxol-4-yl]piperidin-1-yl}methyl)-5-[5-(trifluoromethyl)-4H-1,2,4-triazol-3-yl]pyridin-3-yl]-1,3-oxazolidin-2-one]
34 | 1 to 100 | CC1COCCN1c1cc(-c2nnc(C(F)(F)F)[nH]2)nnc1CN1CCC(c2cccc3c2O[C@@](C)(c2ccc(Cl)cc2F)O3)CC1 (stereo partly drawn) [F-3, 4-[3-({4-[(2S)-2-(4-chloro-2-fluorophenyl)-2-methyl-2H-1,3-benzodioxol-4-yl]piperidin-1-yl}methyl)-6-[5-(trifluoromethyl)-4H-1,2,4-triazol-3-yl]pyridazin-4-yl]-3-methylmorpholine]
